Key:
pentosidine formation [1] = assay: Inhibitory effect on AGEs (pentosidine) formation in serum of renal failure patients; assay type: biochemical, human; conditions: final concentration 5 mM, 1 week at 37° C.; for Pentosidine Formation Ratio (%): control as 100%; for AGE Formation Inhibition Ratio (%): determined from the pentosidine formation ratio
Protocol: To 450 μl of protein (serum of renal failure patients with an informed consent) was added 50 μl of a solution of each test compound in dimethylsulfoxide (final concentration: 5 mM), and the resulting mixture was incubated for 1 week at 37° C. The quantity of pentosidine, which is one of the AGEs formed, was subsequently measured as follows.
First, in order to release the pentosidine formed in the protein, 50 μl of 10% trichloroacetic acid was added to 50 μl of the reacted sample, and the mixture was centrifuged to precipitate the protein that was then collected. The collected protein was washed with 300 μl of 5% trichloroacetic acid and dried; 100 μl of 6 N hydrochloric acid was subsequently added, and hydrolysis was performed for 16 hours at 110° C. The quantity of pentosidine (nmol/l) formed was measured by HPLC using a fluorescence detector (ODS C18, 4.6×250 mm, 335 nm, 385 nm), according to a gradient method (30 minutes, 1.0 ml/min) using a mobile phase of distilled water containing 0.1% trifluoroacetic acid/80% acetonitrile containing 0.08% trifluoroacetic acid (Miyata, T et al.,: J. Am. Soc., Nephrol., 7, 1198-1206, 1996; Miyata, T., et al., Proc. Natl. Acad. Sci., USA, 93 2353-2358, 1996).
In order to evaluate the inhibitory effect of each test compound on AGE formation, the proportion of the quantity of pentosidine formed was calculated as the ratio (%) of pentosidine formation relative to the quantity of pentosidine formed with a control as 100%. Further, from the calculated value, the ratio of inhibition of pentosidine formation (the ratio (%) of inhibition of AGE formation) was also determined.

pentosidine formation [2] = assay: Inhibitory effect on pentosidine formation in plasma of hemodialysis patients; assay type: biochemical, human; conditions: final concentrations 0.8, 2.0, and 5.0 mM, 1 week at 37° C., FIG. 13
Protocol: (§1) Plasma was collected from hemodialysis patients prior to dialysis with the patients' consent, and the plasma was filtered and sterilized. To the plasma (450 μL) was added solutions of TM-2002 in dimethylsulfoxide (50 μL) (final concentrations: 0.8, 2.0, and 5.0 mM), and the mixtures were incubated for 1 week at 37° C. The levels of the pentosidine formation were measured.
Pentosidine was measured as follows. To each sample (50 μL) after incubation was added an equal volume of 10% trichloroacetic acid, and the mixture was subsequently centrifuged at 5,000 g for 5 minutes. After the supernatant was removed, the pellet was washed with 5% trichloroacetic acid (300 μL). […] The concentration of the released pentosidine was measured by reverse-phase HPLC using a fluorescence detector (RF-10A, Shimadzu Corporation) (Miyata, T. et al.; Proc. Natl. Acad. Sci. USA, Vol. 93, p. 2353-2358, 1996). The effluent was monitored at the excitation/emission wavelength of 335/385 nm. […]
The inhibitory effect was evaluated by comparison with a positive control (pyridoxamine (Sigma)), which was reacted in the same manner as Compound TM-2002. […] The results (the quantities of pentosidine: nmol/ml) are shown in FIG. 13, wherein the “control” hereinbelow means a negative control using only the solvent.

pentosidine formation [3] = assay: Inhibitory activity on pentosidine formation, samples incubated with BSA and arabinose; assay type: biochemical; conditions: incubated with BSA and arabinose instead of patient plasma; for Pentosidine Formation Ratio (%) at 5 Concentration: Table 13
Protocol: as §1
Pentosidine was measured as follows. To each sample (50 μL) after incubation was added an equal volume of 10% trichloroacetic acid, and the mixture was subsequently centrifuged at 5,000 g for 5 minutes. After the supernatant was removed, the pellet was washed with 5% trichloroacetic acid (300 μL). The pellet was dried under reduced pressure, and subsequently hydrolyzed in a 6N HCl solution (100 μL) under a nitrogen atmosphere for 16 hours at 110° C. To the acid hydrolysate was then added 5N NaOH (100 μL) and 0.5 M phosphate buffer (pH 7.4) (200 μL); the mixture was subsequently filtered through a micropore filter with 0.5 μm pores and diluted with PBS. The concentration of the released pentosidine was measured by reverse-phase HPLC using a fluorescence detector (RF-10A, Shimadzu Corporation) (Miyata, T. et al.; Proc. Natl. Acad. Sci. USA, Vol. 93, p. 2353-2358, 1996). The effluent was monitored at the excitation/emission wavelength of 335/385 nm. Synthetic pentosidine was used as the reference material. The detection limit of pentosidine was 0.1 pmol/mg protein.
(2) Other edaravone analogues (Compounds (1) or (2)) were investigated for their inhibitory activities on pentosidine formation in the same manner as in Section (1) above, except that the samples were incubated with BSA and arabinose instead of the patient plasma. In the tables, “-” means that the test was not conducted.

Compound | Pentosidine Formation Ratio (%) (pentosidine formation [1]) | AGE Formation Inhibition Ratio (%) (pentosidine formation [1]) | Pentosidine Formation Ratio (%) at 5 mM Drug Concentration (pentosidine formation [3]) [%] | other results
CC1=NN(c2ccc(N)cc2)C(=O)C1CCO (stereo not drawn) [(5)] | 9.33 | 90.67 | – | –
NC1=NN(c2ccccc2)C(=O)C1C(=O)C(=O)Nc1ccccc1 (stereo not drawn) [(1)] | 18.1 | 81.9 | – | –
Cc1ncc2c(c1O)C(c1c(C)nn(-c3ccccc3)c1O)OC2 (stereo not drawn) [No. 68, 1-(5-hydroxy-3-methyl-1-phenyl-1H-pyrazol-4-yl)-6-methyl-1,3-dihydro-furo[3,4-c]pyridin-7-ol] | – | – | – | inhibition of pentosidine formation compared to pyridoxamine (positive control) (pentosidine formation [2]): significantly inhibits the pentosidine formation as compared to pyridoxamine
C/C(=N\O)C1C(=O)N(c2ccccc2)N=C1c1ccccc1 (stereo not drawn) [(16)] | 25.8 | 74.2 | – | –
NC1=NN(c2ccccc2)C(=O)C1C(=O)C(=O)Nc1nccs1 (stereo not drawn) [(2)] | 26.1 | 73.9 | – | –
CC1=NN(c2ccccc2)C(=O)C1C(c1ccccc1)c1c(C)nn(-c2ccccc2)c1O (stereo not drawn) [(9)] | 30.8 | 69.2 | – | –
CCCC1=NN(c2ccccc2)C(=O)C1CC(=O)c1ccccc1 (stereo not drawn) [(20)] | 12.4 | 87.6 | – | –
CC1=NN(c2cccc([N+](=O)[O-])c2)C(=O)C1Sc1nnnn1-c1ccccc1 (stereo not drawn) [(13)] | 45.4 | 54.6 | – | –
CCC1C(=O)N(c2ccc(Cl)cc2)N=C1C (stereo not drawn) [(18)] | 18.0 | 82.0 | – | –
CC1=NN(c2ccccc2)C(=O)C1NS(=O)(=O)c1ccc(C)cc1 (stereo not drawn) [(11)] | 24.9 | 75.1 | – | –
O=C(NC1=NN(c2ccccc2)C(=O)C1Sc1nnnn1-c1ccccc1)c1ccccc1 (stereo not drawn) [(14)] | 22.1 | 77.9 | – | –
CC1=NN(c2ccccc2)C(=O)C1C1C(=O)N(c2ccccc2)N=C1C (stereo not drawn) [(17)] | 35.0 | 65.0 | – | –
CC(=O)NC1C(=O)N(c2ccccc2)N=C1C (stereo not drawn) [(8)] | 23.5 | 76.5 | – | –
CC(=O)NC1C(=O)N(c2ccccc2)N=C1C (stereo not drawn) [compound 12, N-(3-methyl-5-oxo-1-phenyl-4,5-dihydro-1H-pyrazol-4-yl)-acetamide] | – | – | 54.21 | –
COc1cc(/C=C2/C(=O)N(c3ccc(Cl)c(C(=O)O)c3)N=C2C)c(Cl)cc1O [compound 61, 2-chloro-5-[4-(2-chloro-4-hydroxy-5-methoxy-benzylidene)-3-methyl-5-oxo-4,5-dihydro-pyrazol-1-yl]-benzoic acid] | – | – | 46.52 | –
CCOC(=O)C1=NN(c2ccccc2)/C(=C2\C(=O)N(c3ccccc3)N=C2c2ccccc2)S1 [compound 74] | – | – | – | Pentosidine Formation Ratio (%) at 5 Concentration (pentosidine formation [3]): 87.24%
CC1=NN(c2ccccc2Cl)C(=O)/C1=C/c1ccc(N(C)C)cc1 [compound 32, 2-(2-chloro-phenyl)-4-(4-dimethylamino-benzylidene)-5-methyl-2,4-dihydro-pyrazol-3-one] | – | – | 8.7 | –
CCc1ccc(N2N=C(C)/C(=C\c3ccc(O)cc3)C2=O)cc1 [compound 48, 2-(4-ethyl-phenyl)-4-(4-hydroxy-benzylidene)-5-methyl-2,4-dihydro-pyrazol-3-one] | – | – | 0.02 | –
CC1=NN(c2cccc(Cl)c2)C(=O)/C1=N/O [compound 73, 2-(3-chloro-phenyl)-5-methyl-2H-pyrazol-3,4-dione-4-oxime] | – | – | – | Pentosidine Formation Ratio (%) at 5 Concentration (pentosidine formation [3]): 66.42%
O=C(NC1=NN(c2ccccc2)C(=O)C1Sc1nnnn1-c1ccccc1)c1ccccc1 (stereo not drawn) [compound 14, N-[5-oxo-1-phenyl-4-(1-phenyl-1H-tetrazol-5-ylsulfanyl)-4,5-dihydro-1H-pyrazol-3-yl]-benzamide] | – | – | 61.27 | –
NC1=NN(c2ccccc2)C(=O)C1Sc1nnnn1-c1ccccc1 (stereo not drawn) [(6)] | 16.8 | 83.2 | – | –
O=C1C2CCCC2=NN1c1ccccc1 (stereo not drawn) [(10)] | 18.0 | 82.0 | – | –
COc1cc(/C=C2/C(=O)N(c3ccc(C(=O)OC(C)C)cc3)N=C2C)ccc1O [compound 60] | – | – | 9.02 | –
CC1=NN(c2ccc(C)c(C)c2)C(=O)/C1=C\c1ccc(O)cc1O [compound 54, 4-(2,4-dihydroxy-benzylidene)-2-(3,4-dimethyl-phenyl)-5-methyl-2,4-dihydro-pyrazol-3-one] | – | – | 73.48 | –
CC1=NN(c2ccccc2)C(=O)C12C(c1ccccc1)C21C(=O)N(c2ccccc2)N=C1C (stereo not drawn) [compound 30, 4,10-dimethyl-2,8,11-triphenyl-2,3,8,9-tetraza-dispiro[4.0.4.1]undeca-3,9-diene-1,7-dione] | – | – | 62.43 | –
CC1=NN(c2cccc(C(F)(F)F)c2)C(=O)/C1=C/C=C/c1ccccc1 [compound 33] | – | – | 80.08 | –
CC1=NN(c2ccccc2)C(=O)C1CCC(=O)O (stereo not drawn) [(7)] | 27.2 | 72.8 | – | –

From patent US20120065198A2, “Detection and Treatment of Schizophrenia” (Tokai University Educational System, priority 2007, published 2012)
